From patent US9200001B2, “Triazolyl PDE10 inhibitors” (Merck Sharp & Dohme Corp., priority 2011, dated 2015)

What was measured:
human PDE10A2 = human PDE10A2 (Homo sapiens (Human), UniProt Q9Y233); experiment: PDE10 fluorescence polarization (IMAP FP) inhibition assay; assay type: biochemical; conditions: FAM-labeled cAMP 50 nM, room temperature, read-out: PDE10a Ki
Summary of the method: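 Cytoplasmic lysate of AD293 cells transiently expressing human PDE10A2, incubated 30 minutes at room temperature with 50 nM FAM-labeled cAMP in Tris pH 7.2 with MgCl2. Read by IMAP fluorescence polarization; 0% inhibition set by 1% DMSO, 100% by a reference PDE10 inhibitor.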

Chain of human PDE10A2 (Q9Y233 267-1055): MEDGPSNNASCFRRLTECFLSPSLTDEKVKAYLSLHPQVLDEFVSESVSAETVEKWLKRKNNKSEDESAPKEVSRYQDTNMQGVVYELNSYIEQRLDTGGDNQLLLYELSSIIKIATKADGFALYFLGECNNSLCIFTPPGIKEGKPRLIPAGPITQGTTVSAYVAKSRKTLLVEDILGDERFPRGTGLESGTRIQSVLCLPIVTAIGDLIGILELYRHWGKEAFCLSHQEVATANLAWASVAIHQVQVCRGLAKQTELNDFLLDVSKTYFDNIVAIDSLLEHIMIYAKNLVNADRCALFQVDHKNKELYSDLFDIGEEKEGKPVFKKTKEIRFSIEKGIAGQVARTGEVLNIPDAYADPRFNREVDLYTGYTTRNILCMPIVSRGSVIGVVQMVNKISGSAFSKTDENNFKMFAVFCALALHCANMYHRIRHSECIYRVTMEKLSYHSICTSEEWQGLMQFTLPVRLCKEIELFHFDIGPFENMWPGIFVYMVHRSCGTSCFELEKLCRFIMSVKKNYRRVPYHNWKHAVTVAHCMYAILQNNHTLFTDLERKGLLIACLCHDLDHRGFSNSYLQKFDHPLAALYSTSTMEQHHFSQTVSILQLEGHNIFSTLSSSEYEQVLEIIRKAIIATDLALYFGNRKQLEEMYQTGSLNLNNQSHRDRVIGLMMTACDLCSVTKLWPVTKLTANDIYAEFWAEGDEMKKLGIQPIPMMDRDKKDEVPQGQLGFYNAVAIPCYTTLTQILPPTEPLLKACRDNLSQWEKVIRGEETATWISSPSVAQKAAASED

| Compound | melting point | Ki (human PDE10A2) |
| --- | --- | --- |
| Cc1nc(C)n(-c2cc([C@H]3C[C@@H]3c3nc4ccccc4n3C)nc(N(C)C)n2)n1 (relative stereo) [Cpd 114, trans-4-(3,5-dimethyl-1H-1,2,4-triazol-1-yl)-N,N-dimethyl-6-[2-(1-methyl-1H-benzimidazol-2-yl)cyclopropyl]pyrimidin-2-amine] | 164 to 165 °C | 1.2 nM |
| Cc1nc(C)n(-c2cc([C@H]3C[C@@H]3c3nc4ccccc4n3C)nc(C(N)=O)n2)n1 (relative stereo) [Cpd 130, trans-4-(3,5-dimethyl-1H-1,2,4-triazol-1-yl)-6-[2-(1-methyl-1H-benzimidazol-2-yl)cyclopropyl]pyrimidine-2-carboxamide] | 119 to 121 °C | 1.6 nM |
| CCOc1nc([C@@H]2C[C@H]2c2nc3ccccc3n2C)cc(-n2nc(C)nc2C)n1 (relative stereo) [Example 14, trans-2-(2-(6-(3,5-dimethyl-1H-1,2,4-triazol-1-yl)-2-ethoxypyrimidin-4-yl)cyclopropyl)-1-methyl-1H-benzo[d]imidazole] | 82 to 83 °C |  |
| Cc1nc(C)n(-c2cc([C@H]3C[C@@H]3c3nc4ccccc4n3C)nc(N3CCCC3)n2)n1 (relative stereo) [Cpd 116, trans-2-{2-[6-(3,5-dimethyl-1H-1,2,4-triazol-1-yl)-2-pyrrolidin-1-ylpyrimidin-4-yl]cyclopropyl}-1-methyl-1H-benzimidazole] | 180 to 185 °C | 1.2 nM |
| Cc1nc(C)n(-c2cc([C@@H]3C[C@H]3c3nc4ccccc4n3C)nc(C#N)n2)n1 (relative stereo) [Example 21, trans-4-(3,5-dimethyl-1H-1,2,4-triazol-1-yl)-6-(2-(1-methyl-1H-benzo[d]imidazol-2-yl)cyclopropyl)pyrimidine-2-carbonitrile] | 229 to 231 °C |  |
| Cc1nc(C)n(-c2cc([C@H]3C[C@@H]3c3nc4ccccc4n3C)nc(N3CCOCC3)n2)n1 (relative stereo) [Cpd 117, trans-2-{2-[6-(3,5-dimethyl-1H-1,2,4-triazol-1-yl)-2-morpholin-4-ylpyrimidin-4-yl]cyclopropyl}-1-methyl-1H-benzimidazole] | 226 to 228 °C |  |
| Cc1nc(C)n(-c2cc([C@H]3C[C@@H]3c3nc4ccccc4n3C)nc(OC(C)C)n2)n1 (relative stereo) [Cpd 113, trans-2-{2-[6-(3,5-dimethyl-1H-1,2,4-triazol-1-yl)-2-(1-methylethoxy)pyrimidin-4-yl]cyclopropyl}-1-methyl-1H-benzimidazole] | 133 to 135 °C | 0.62 nM |
| CNc1nc([C@H]2C[C@@H]2c2nc3ccccc3n2C)cc(-n2nc(C)nc2C)n1 (relative stereo) [Example 3, trans-4-(3,5-dimethyl-1H-1,2,4-triazol-1-yl)-N-methyl-6-(2-(1-methyl-1H-benzo[d]imidazol-2-yl)cyclopropyl)pyrimidin-2-amine] | 212 to 214 °C |  |
| Cc1nc([C@H]2C[C@@H]2c2nc3ccccc3n2C)cc(-n2nc(C)nc2-c2ccccn2)n1 (stereo in doubt) [Cpd 82, 1-methyl-2-{2-[2-methyl-6-(3-methyl-5-pyridin-2-yl-1H-1,2,4-triazol-1-yl)pyrimidin-4-yl]cyclopropyl}-1H-benzimidazole] |  | > 75 nM |
| COc1nc([C@H]2C[C@@H]2c2nc3ccccc3n2C)cc(-n2nc(C)nc2C)n1 (relative stereo) [Cpd 111, trans-2-{2-[6-(3,5-dimethyl-1H-1,2,4-triazol-1-yl)-2-methoxypyrimidin-4-yl]cyclopropyl}-1-methyl-1H-benzimidazole] |  | 1.3 nM |
| Cc1nc(C2CC2c2nc3ccccc3n2C)cc(-n2nc(C)nc2C)n1 (stereo not drawn) [Cpd 36, 2-(2-(6-(3,5-dimethyl-1H-1,2,4-triazol-1-yl)-2-methylpyrimidin-4-yl)cyclopropyl)-1-methyl-1H-benzo[d]imidazole] |  | 3.5 nM |
| COCCOc1nc([C@@H]2C[C@H]2c2nc3ccccc3n2C)cc(-n2nc(C)nc2C)n1 [Cpd 65, 2-{(1R,2R)-2-[6-(3,5-dimethyl-1H-1,2,4-triazol-1-yl)-2-(2-methoxyethoxy)pyrimidin-4-yl]cyclopropyl}-1-methyl-1H-benzimidazole] |  | 1.08 nM |
| COc1ccc(Cc2nc(C)nn2-c2cc(/C=C/c3ccc4ncccc4n3)nc(C)n2)cc1OC [Cpd 13, (E)-2-(2-(6-(5-(3,4-dimethoxybenzyl)-3-methyl-1H-1,2,4-triazol-1-yl)-2-methylpyrimidin-4-yl)vinyl)-1,5-naphthyridine] |  | 0.01 nM |
| Cc1nc([C@@H]2C[C@H]2c2ccc3ccccc3n2)cc(-n2nc(C)nc2C)n1 (relative stereo) [Cpd 127, trans-2-{2-[6-(3,5-dimethyl-1H-1,2,4-triazol-1-yl)-2-methylpyrimidin-4-yl]cyclopropyl}quinoline] |  | 6 nM |
| CCc1nc(C)nn1-c1cc([C@@H]2C[C@H]2c2nc3ccccc3n2C)nc(C)n1 [Cpd 92, 2-{(1R,2R)-2-[6-(5-ethyl-3-methyl-1H-1,2,4-triazol-1-yl)-2-methylpyrimidin-4-yl]cyclopropyl}-1-methyl-1H-benzimidazole] |  | 0.4 nM |
| Cc1nc(C)n(-c2cc([C@@H]3C[C@H]3c3nc4ccccc4n3C)nc(OCCO)n2)n1 [Cpd 64, 2-({4-(3,5-dimethyl-1H-1,2,4-triazol-1-yl)-6-[(1R,2R)-2-(1-methyl-1H-benzimidazol-2-yl)cyclopropyl]pyrimidin-2-yl}oxy)ethanol] |  | 1.09 nM |
| Cc1nc(C2CC2c2nc3ccccc3n2Cc2ccccc2)cc(-n2nc(C)nc2C)n1 (stereo not drawn) [Cpd 52, 1-benzyl-2-(2-(6-(3,5-dimethyl-1H-1,2,4-triazol-1-yl)-2-methylpyrimidin-4-yl)cyclopropyl)-1H-benzo[d]imidazole] |  | 13.4 nM |
